As a reminder, the IC50 is the point on the concentration scale where inhibition reaches its midpoint. In general, Kd refers to the free concentration of one partner at which half of the binding sites on the other are occupied at equilibrium, for simple one-to-one binding.

The structures appear in SMILES notation. The source made the active and inactive calls. The rule behind the calls is not given here.

One molecule from ChEMBL document CHEMBL4346716, “Synthesis of novel andrographolide beckmann rearrangement derivatives and evaluation of their HK2-related anti-inflammatory activities” (Eur J Med Chem, 2019) can be followed below.

Data set [1] deals with RAW264.7. Put plainly: Antiinflammatory activity in mouse RAW264.7 cells assessed as inhibition of LPS-induced NO production preincubated for 3 hrs followed by LPS addition measured after 24 hrs by Griess assay. It counts as functional, cell-based. (The Griess reaction detects nitrite, a stable product of nitric oxide.)
In data set [2] the target is T1, Hexokinase-2 (Homo sapiens, UniProt P52789).
T1 sequence (P52789 whole entry): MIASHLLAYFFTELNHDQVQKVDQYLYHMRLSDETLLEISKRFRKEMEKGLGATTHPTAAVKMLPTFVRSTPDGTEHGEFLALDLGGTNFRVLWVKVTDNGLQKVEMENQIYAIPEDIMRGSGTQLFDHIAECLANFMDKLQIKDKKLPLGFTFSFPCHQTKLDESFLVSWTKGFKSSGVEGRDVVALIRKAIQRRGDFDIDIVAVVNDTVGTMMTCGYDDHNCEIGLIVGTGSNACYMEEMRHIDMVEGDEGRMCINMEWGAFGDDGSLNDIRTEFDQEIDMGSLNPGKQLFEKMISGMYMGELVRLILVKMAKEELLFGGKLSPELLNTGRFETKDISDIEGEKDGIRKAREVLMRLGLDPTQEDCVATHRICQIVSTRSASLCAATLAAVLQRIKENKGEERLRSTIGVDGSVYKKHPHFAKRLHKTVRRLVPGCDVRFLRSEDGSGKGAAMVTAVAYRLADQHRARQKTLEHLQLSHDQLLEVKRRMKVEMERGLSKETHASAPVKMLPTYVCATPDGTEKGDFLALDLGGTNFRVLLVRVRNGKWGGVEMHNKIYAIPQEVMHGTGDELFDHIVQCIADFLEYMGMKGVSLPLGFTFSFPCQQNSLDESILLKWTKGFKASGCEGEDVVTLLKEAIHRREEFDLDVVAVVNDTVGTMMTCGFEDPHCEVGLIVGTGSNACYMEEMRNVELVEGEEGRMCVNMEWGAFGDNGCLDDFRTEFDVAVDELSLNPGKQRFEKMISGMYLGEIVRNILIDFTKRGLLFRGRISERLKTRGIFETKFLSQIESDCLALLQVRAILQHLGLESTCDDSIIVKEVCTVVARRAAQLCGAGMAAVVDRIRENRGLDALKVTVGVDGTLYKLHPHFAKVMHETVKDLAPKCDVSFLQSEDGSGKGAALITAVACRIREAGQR
Description: Inhibition of recombinant human HK2 expressed in Escherichia coli BL21(DE3) using glucose as substrate preincubated for 10 mins followed by substrate addition in presence of ATP by G6PDH/NADP coupled assay.

Data set [3] concerns RAW264.7. Put plainly: Cytotoxicity against mouse RAW264.7 cells assessed as reduction in cell viability up to 100 uM after 24 hrs by MTT assay. Type of data set: cell-based. The note with it: raw264.7, 24 h.
Data set [4] deals with RAW264.7. Description: Antiinflammatory activity in mouse RAW264.7 cells assessed as reduction in LPS-induced IL-1beta production preincubated for 3 hrs followed by LPS addition measured after 24 hrs by ELISA. Type of data set: functional, cell-based. (ELISA stands for enzyme-linked immunosorbent assay.)
In data set [5] the test system is RAW264.7. Put plainly: Antiinflammatory activity in mouse RAW264.7 cells assessed as reduction in LPS-induced IL-6 production preincubated for 3 hrs followed by LPS addition measured after 24 hrs by ELISA. Type of data set: functional, cell-based.
Data set [6] has as its system RAW264.7. Description: Antiinflammatory activity against mouse RAW264.7 cells assessed as inhibition of LPS-induced COX2 protein expression preincubated for 3 hrs followed by LPS addition measured after 24 hrs by Western blot analysis. Type of data set: functional, cell-based. A general note: A western blot detects proteins with antibodies after separation by electrophoresis.

For data set [7], the system named is RAW264.7. Put plainly: Antiinflammatory activity against mouse RAW264.7 cells assessed as inhibition of LPS-induced iNOS protein expression preincubated for 3 hrs followed by LPS addition measured after 24 hrs by Western blot analysis. Type of data set: functional, cell-based.
Data set [8] deals with RAW264.7. Description: Inhibition of LPS-induced NFkappaB protein expression in mouse RAW264.7 cells at 12.5 to 50 uM preincubated for 3 hrs followed by LPS addition and measured after 24 hrs by Western blot analysis. Type of data set: functional, cell-based.
The target of data set [9] is Transcription factor p65 (Mus musculus) (UniProt Q04207). Put plainly: Inhibition of LPS-stimulated NFkappaB p65 nuclear translocation in mouse RAW264.7 cells at 25 uM pretreated for 2 hrs followed by LPS-stimulation and measured after 12 hrs by DAPI staining based fluorescence microscopic analysis. Type of data set: cell-based.
Data set [10] has as its target T2, Hexokinase-2 (Mus musculus) (UniProt O08528).
T2 sequence (whole entry): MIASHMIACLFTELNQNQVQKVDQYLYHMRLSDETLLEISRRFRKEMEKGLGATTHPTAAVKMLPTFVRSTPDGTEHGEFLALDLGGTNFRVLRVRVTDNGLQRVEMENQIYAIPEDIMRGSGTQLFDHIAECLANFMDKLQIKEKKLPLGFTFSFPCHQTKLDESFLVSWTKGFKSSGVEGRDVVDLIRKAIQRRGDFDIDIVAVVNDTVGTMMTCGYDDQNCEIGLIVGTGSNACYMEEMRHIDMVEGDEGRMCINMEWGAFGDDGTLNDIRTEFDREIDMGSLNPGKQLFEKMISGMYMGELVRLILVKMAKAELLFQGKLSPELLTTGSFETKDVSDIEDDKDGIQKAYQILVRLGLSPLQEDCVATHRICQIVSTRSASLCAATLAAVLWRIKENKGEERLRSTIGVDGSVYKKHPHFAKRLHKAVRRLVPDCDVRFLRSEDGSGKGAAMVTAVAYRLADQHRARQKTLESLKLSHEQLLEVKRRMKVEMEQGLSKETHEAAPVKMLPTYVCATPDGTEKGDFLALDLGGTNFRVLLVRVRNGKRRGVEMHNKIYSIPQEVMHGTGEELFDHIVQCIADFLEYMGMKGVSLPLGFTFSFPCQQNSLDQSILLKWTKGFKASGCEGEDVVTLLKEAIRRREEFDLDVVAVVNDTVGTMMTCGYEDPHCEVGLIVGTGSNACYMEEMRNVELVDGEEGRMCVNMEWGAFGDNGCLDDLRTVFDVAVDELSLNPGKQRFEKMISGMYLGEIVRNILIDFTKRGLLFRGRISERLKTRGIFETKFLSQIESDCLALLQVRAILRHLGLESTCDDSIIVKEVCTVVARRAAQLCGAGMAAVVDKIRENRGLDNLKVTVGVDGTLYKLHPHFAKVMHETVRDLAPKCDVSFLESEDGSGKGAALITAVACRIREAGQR
Description: Inhibition of HK2 mouse RAW264.7 cells assessed as reduction in LPS-induced glycolysis at 50 uM followed by LPS-stimulation and measured after 4 hrs by seahorse XFe96 analyser based assay. It counts as cell-based.

The target in data set [11] is T1, Hexokinase-2. Put plainly: Binding affinity to recombinant human HK2 expressed in Escherichia coli BL21(DE3) assessed as dissociation constant measured after 15 mins by microscale thermophoresis assay.
Data set [12] addresses T3, Hexokinase-2 (Homo sapiens) (UniProt P52789).
T3 sequence (whole entry): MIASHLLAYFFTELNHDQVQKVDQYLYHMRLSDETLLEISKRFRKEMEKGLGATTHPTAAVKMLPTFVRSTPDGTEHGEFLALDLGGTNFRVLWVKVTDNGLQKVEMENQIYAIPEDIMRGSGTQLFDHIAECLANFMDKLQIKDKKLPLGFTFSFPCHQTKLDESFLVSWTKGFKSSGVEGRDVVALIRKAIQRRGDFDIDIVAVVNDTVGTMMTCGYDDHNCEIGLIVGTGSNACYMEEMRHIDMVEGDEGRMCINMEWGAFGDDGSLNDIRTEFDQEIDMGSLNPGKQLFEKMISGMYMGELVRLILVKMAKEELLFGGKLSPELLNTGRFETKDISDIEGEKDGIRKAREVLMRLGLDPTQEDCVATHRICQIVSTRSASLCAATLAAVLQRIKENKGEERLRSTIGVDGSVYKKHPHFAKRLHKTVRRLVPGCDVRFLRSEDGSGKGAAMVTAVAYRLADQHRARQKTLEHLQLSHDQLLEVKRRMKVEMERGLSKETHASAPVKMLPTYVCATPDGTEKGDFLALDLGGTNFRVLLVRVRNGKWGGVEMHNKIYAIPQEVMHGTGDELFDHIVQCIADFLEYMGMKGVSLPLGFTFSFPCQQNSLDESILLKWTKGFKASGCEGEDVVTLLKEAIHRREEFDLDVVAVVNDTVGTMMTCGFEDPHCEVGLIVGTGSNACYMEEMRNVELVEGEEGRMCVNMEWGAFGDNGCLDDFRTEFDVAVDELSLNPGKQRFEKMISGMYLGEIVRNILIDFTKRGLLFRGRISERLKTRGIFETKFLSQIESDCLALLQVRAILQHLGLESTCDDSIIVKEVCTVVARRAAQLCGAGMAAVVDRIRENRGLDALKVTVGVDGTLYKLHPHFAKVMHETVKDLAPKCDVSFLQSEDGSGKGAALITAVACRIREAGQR
Put plainly: Non competitive inhibition of recombinant human HK2 expressed in Escherichia coli BL21(DE3) assessed as decrease in Vmax using ATP as substrate by Lineweaver-Burk double reciprocal plot analysis.

The target in data set [13] is T3, Hexokinase-2 (Homo sapiens). Description: Non competitive inhibition of recombinant human HK2 expressed in Escherichia coli BL21(DE3) assessed as decrease in Vmax using glucose as substrate by Lineweaver-Burk double reciprocal plot analysis.

Chain of Transcription factor p65 (Mus musculus) (Q04207 whole entry): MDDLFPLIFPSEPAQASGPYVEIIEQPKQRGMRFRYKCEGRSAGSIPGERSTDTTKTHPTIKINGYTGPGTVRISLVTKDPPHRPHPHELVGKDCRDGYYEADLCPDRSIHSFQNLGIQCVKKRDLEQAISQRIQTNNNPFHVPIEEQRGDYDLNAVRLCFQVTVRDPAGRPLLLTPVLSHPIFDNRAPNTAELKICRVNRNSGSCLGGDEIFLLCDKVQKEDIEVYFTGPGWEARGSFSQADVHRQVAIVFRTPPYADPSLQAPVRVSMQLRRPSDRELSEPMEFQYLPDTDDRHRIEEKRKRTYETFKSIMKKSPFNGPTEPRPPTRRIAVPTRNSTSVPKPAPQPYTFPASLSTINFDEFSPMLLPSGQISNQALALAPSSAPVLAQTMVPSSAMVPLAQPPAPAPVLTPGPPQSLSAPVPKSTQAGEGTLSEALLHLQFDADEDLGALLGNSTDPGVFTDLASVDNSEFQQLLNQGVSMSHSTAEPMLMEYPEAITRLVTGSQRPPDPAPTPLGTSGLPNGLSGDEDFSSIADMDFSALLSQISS

For the molecule `C=C1CC[C@H]2[C@@](C)(CCC(=O)N[C@@]2(C)COC(=O)CCCC[C@@H]2CCSS2)[C@@H]1/C=C/C1=CCOC1=O`, the 50% inhibitory concentration (IC50) in data set [1] is 22.4 µM; in data set [2] it was 9.36 µM. In [3], the Activity result was “Non-Toxic”. The inhibition entry in data set [4], in data set [5], in data set [6], in data set [7], in data set [12] and in data set [13] was “Dose-dependent effect” each time. In addition, the inhibition entry in data set [8], in [9] and in data set [10] was “Active” throughout. Besides, the Kd in data set [11] is 5.12 µM.
